# Earlier results as cited in PMC7845594, “Novel Immune Modulators Enhance Caenorhabditis elegans Resistance to Multiple Pathogens” (mSphere, 2021).
# Tested on: GroEL and GroES families of bacterial chaperones
# Design: method as in PMID 27184767, PMID 24418775
# Conditions: cited from earlier work
structure (smiles),measurement,value
CNC(=O)Oc1c(Br)cc2sc(=O)oc2c1Br [LK34],Inhibition of GroEL and GroES chaperones,potent inhibitor
